Values quoted from earlier work, collected in publication PMC3045272 (Acta Crystallographica Section D: Biological Crystallography, 2011).

Tested on: Cn (calcineurin)
Set-up: method as in Landrieu et al., 2010
Conditions: modification of the fourth residue; ref Landrieu et al., 2010

Debio 025
binding of the compound–CypA complex to Cn: prevents binding of the Debio 025–CypA complex to Cn
